Molecules are shown by their SMILES. “And” between values parts separate entries of the source, which are not always exact repeats. Equal values may be shown once.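 Five concentrations, 48 hours, 96-well plates. Here, GI50 denotes the concentration required for 50% inhibition of growth. TGI marks complete inhibition of growth.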

Test systems include HT29 colon; MOLT-4 leukemia; NCI-H522 lung; NCI/ADR-RES ovarian; OVCAR-3 ovarian; OVCAR-4 ovarian; OVCAR-5 ovarian; SK-MEL-2 melanoma; SNB-75 CNS; SR leukemia.
Common to all, as to assay: NCI-60 cell line screen, 48 h

Consider `Cc1ccc(-c2nc(N3CCCNCC3)c3oc(-c4ccc(C)cc4)nc3n2)cc1`, for which the GI50 with HT29 colon is 1.49 µM; in the experiment with MOLT-4 leukemia, 1.77 µM; in the experiment with NCI-H522 lung it was 1.75 µM; with NCI/ADR-RES ovarian, 1.96 µM; in the experiment on OVCAR-3 ovarian it was 1.73 µM; in the experiment on OVCAR-4 ovarian, 2.11 µM. Moreover, the GI50 is 1.75 µM with OVCAR-5 ovarian, 21.3 µM in the experiment with SK-MEL-2 melanoma, 1.66 µM with SNB-75 CNS and 0.213 µM with SR leukemia. The TGI in the experiment on HT29 colon amounted to 2.85 µM; with MOLT-4 leukemia, 3.59 µM; in the experiment with NCI-H522 lung, 3.51 µM; in the experiment with NCI/ADR-RES ovarian it was 3.74 µM; in the experiment with OVCAR-3 ovarian it was 3.1 µM; with OVCAR-4 ovarian, 4.67 µM. Also, the TGI in the experiment on OVCAR-5 ovarian worked out at 3.17 µM; in the experiment with SK-MEL-2 melanoma, 45.4 µM; in the experiment with SNB-75 CNS, 3.02 µM; in the experiment with SR leukemia it was 0.575 µM.
On to `[Cl][Cd][Cl]`, for which the GI50 with HT29 colon is 45.4 µM; in the experiment on MOLT-4 leukemia, 31.4 µM and 11.8 µM; in the experiment with NCI-H522 lung, 0.32 µM and 1.39 µM and 0.349 µM; in the experiment on NCI/ADR-RES ovarian it was 120 µM; in the experiment on OVCAR-3 ovarian, 3.26 µM and 12.1 µM and 6.94 µM; in the experiment with OVCAR-4 ovarian, 7.95 µM and 19.6 µM and 8.69 µM. The GI50 in the experiment with OVCAR-5 ovarian is > 61.9 µM and 99.2 µM; with SK-MEL-2 melanoma, 16.4 µM and 8.88 µM; in the experiment with SNB-75 CNS, 22.7 µM and 11.2 µM; with SR leukemia, 52.3 µM and 6.16 µM. For the same compound, the TGI was 130 µM with HT29 colon; > 83.4 µM and 82.9 µM with MOLT-4 leukemia; 3.65 µM and 1.55 µM in the experiment on NCI-H522 lung; 277 µM with NCI/ADR-RES ovarian; 8 µM and 25.9 µM and 15.3 µM with OVCAR-3 ovarian; 36.1 µM and 23.7 µM in the experiment with OVCAR-4 ovarian. The TGI in the experiment on OVCAR-5 ovarian is 98.4 µM and 179 µM; with SK-MEL-2 melanoma it was 24.8 µM and 18.9 µM; with SNB-75 CNS, 45.6 µM and 29.4 µM; in the experiment on SR leukemia, 500 µM.
For `CN(C)CCN1C(=O)c2cccc3cccc(c23)C1=O`, the GI50 was 11.7 µM in the experiment with HT29 colon; 6.3 µM in the experiment on MOLT-4 leukemia; 15.1 µM with NCI-H522 lung; 19.6 µM in the experiment on NCI/ADR-RES ovarian; 21.5 µM in the experiment on OVCAR-3 ovarian; above 25 µM in the experiment on OVCAR-4 ovarian. Besides, the GI50 in the experiment on OVCAR-5 ovarian was 18.1 µM; in the experiment on SK-MEL-2 melanoma, above 25 µM; in the experiment on SNB-75 CNS, above 25 µM; in the experiment on SR leukemia, 5.18 µM. Also, the TGI was above 25 µM with HT29 colon; 16.3 µM with MOLT-4 leukemia; above 25 µM in the experiment on NCI-H522 lung; above 25 µM in the experiment on NCI/ADR-RES ovarian; above 25 µM in the experiment with OVCAR-3 ovarian; above 25 µM in the experiment with OVCAR-4 ovarian. The TGI in the experiment on OVCAR-5 ovarian was above 25 µM; in the experiment with SK-MEL-2 melanoma, above 25 µM; in the experiment on SNB-75 CNS, above 25 µM; in the experiment on SR leukemia it was 18.3 µM.
With `Cc1cccc2c(N)c3ccccc3nc12`, the GI50 in the experiment with HT29 colon is 0.593 µM; with MOLT-4 leukemia, 0.556 µM; in the experiment with NCI-H522 lung, 1.45 µM; in the experiment with NCI/ADR-RES ovarian it was 1.32 µM; with OVCAR-3 ovarian, 2.13 µM; in the experiment with OVCAR-4 ovarian it was 1.69 µM. The GI50 was 1.37 µM with OVCAR-5 ovarian, 1.68 µM in the experiment on SK-MEL-2 melanoma, 1.47 µM in the experiment with SNB-75 CNS and 0.727 µM in the experiment on SR leukemia. Also, the TGI in the experiment with HT29 colon is 3.58 µM; in the experiment with MOLT-4 leukemia, 11.1 µM; with NCI-H522 lung, 4.12 µM; in the experiment with NCI/ADR-RES ovarian, 12.8 µM; with OVCAR-3 ovarian it was 10 µM; with OVCAR-4 ovarian, 11.7 µM. For the same compound, the TGI was 11.9 µM in the experiment with OVCAR-5 ovarian, 3.84 µM with SK-MEL-2 melanoma, 4.14 µM with SNB-75 CNS and 13.3 µM in the experiment on SR leukemia.
With `CC(C)CCN[C@@H]1CCc2cc(O)c(N3CC(=O)NS3(=O)=O)c(F)c2C1`, the GI50 with HT29 colon, with MOLT-4 leukemia, in the experiment on NCI-H522 lung, with NCI/ADR-RES ovarian, with OVCAR-3 ovarian and with OVCAR-4 ovarian was above 100 µM each time. The GI50 was above 100 µM in the experiment on OVCAR-5 ovarian, above 100 µM in the experiment with SK-MEL-2 melanoma, 1.17 µM in the experiment with SNB-75 CNS and 1.78 µM with SR leukemia. Besides, the TGI in the experiment with HT29 colon, in the experiment on MOLT-4 leukemia, in the experiment with NCI-H522 lung, in the experiment on NCI/ADR-RES ovarian, in the experiment on OVCAR-3 ovarian and in the experiment with OVCAR-4 ovarian was above 100 µM in each case. The TGI in the experiment on OVCAR-5 ovarian, in the experiment with SK-MEL-2 melanoma, in the experiment with SNB-75 CNS and in the experiment on SR leukemia was above 100 µM each time.
On to `CCN(CC)CCSCCCNc1c2ccc(Cl)cc2nc2ccc(OC)cc12`, for which the GI50 was 0.423 µM with HT29 colon; 0.435 µM in the experiment on MOLT-4 leukemia; 1.39 µM with NCI-H522 lung; 1.15 µM in the experiment on NCI/ADR-RES ovarian; 1.3 µM with OVCAR-3 ovarian; 0.756 µM in the experiment on OVCAR-4 ovarian. For the same compound, the GI50 is 1.14 µM in the experiment with OVCAR-5 ovarian, 2.06 µM in the experiment with SK-MEL-2 melanoma, 1.28 µM in the experiment on SNB-75 CNS and 0.976 µM with SR leukemia. Further, the TGI in the experiment with HT29 colon came out at 1.94 µM; in the experiment with MOLT-4 leukemia, 3.94 µM; in the experiment with NCI-H522 lung, 3.13 µM; with NCI/ADR-RES ovarian it was 3.7 µM; in the experiment with OVCAR-3 ovarian, 4.18 µM; in the experiment on OVCAR-4 ovarian, 3.03 µM. Further, the TGI was 4.39 µM with OVCAR-5 ovarian, 3.87 µM with SK-MEL-2 melanoma, 2.72 µM in the experiment on SNB-75 CNS and 4.84 µM in the experiment with SR leukemia.
On to `COc1cc2c(c(OC3OC(CO)C(O)C(O)C3O)c1)C(=O)CC(c1ccc(O)cc1)O2` (stereo not given), for which the TGI in the experiment on HT29 colon, in the experiment with MOLT-4 leukemia, in the experiment with NCI-H522 lung, in the experiment on NCI/ADR-RES ovarian, in the experiment with OVCAR-3 ovarian and in the experiment on OVCAR-4 ovarian was above 100 µM throughout. The TGI in the experiment on OVCAR-5 ovarian, in the experiment on SK-MEL-2 melanoma, in the experiment on SNB-75 CNS and in the experiment on SR leukemia was above 100 µM in each case.
As for `N#Cc1cc(S(=O)(=O)Nc2nc3ccccc3s2)c(SCc2ccccc2)cc1Cl`, the GI50 in the experiment on HT29 colon was 23.6 µM; with MOLT-4 leukemia it was 27.4 µM; with NCI-H522 lung, 11.3 µM; in the experiment on NCI/ADR-RES ovarian, 30.6 µM; with OVCAR-3 ovarian, 22.3 µM; in the experiment on OVCAR-4 ovarian, 34.4 µM. Also, the GI50 with OVCAR-5 ovarian was 23.8 µM; in the experiment on SK-MEL-2 melanoma, 15.3 µM; in the experiment on SNB-75 CNS, 26.2 µM; with SR leukemia it was 37.7 µM. Besides, the TGI with HT29 colon was 55.8 µM; in the experiment on MOLT-4 leukemia, 74.4 µM; in the experiment on NCI-H522 lung, 32.3 µM; in the experiment on NCI/ADR-RES ovarian, above 100 µM; in the experiment on OVCAR-3 ovarian, 59.5 µM; with OVCAR-4 ovarian, above 100 µM. Moreover, the TGI is 54.7 µM in the experiment with OVCAR-5 ovarian, 36.8 µM in the experiment on SK-MEL-2 melanoma, 63.3 µM in the experiment with SNB-75 CNS and above 100 µM with SR leukemia.

These data come from PubChem BioAssay (NCI).
